The values below come from patent US4540689A, “Penicillin derivative” (Kureha Kagaku Kogyo Kabushiki Kaisha, priority 1981, dated 1985).

Converted amounts (≈) assume the structure as drawn. Bounds are passed on as bounds.

The test system of experiment [1] is Staphylococcus aureus IAM 1011. Description: Antibacterial activity (MIC), agar plate, Staph. aureus. The experiment is classed as cell-based. The following applies: Staph. aureus IAM 1011, Mueller-Hinton agar, 37° C., 18 to 24 hours; unit assumed. The procedure: (§1) Antibacterial activity of the present compounds was examined as follows.
(§2) Antibacterial activity of each of the present compounds was examined against the following two bacteria according to the standard method of Japan Society of Chemotherapy:
Staphylococcus aureus IAM 1011
(§3) Each bacterial strain was inoculated into the Mueller-Hinton's culture medium and cultured at 37° C. for 18 to 48 hours. The culture medium was diluted so as to contain 1×10^6 cells of the bacteria per one ml, and the obtained medium was used as the bacterial specimen.
(§4) Agar plates were prepared by adding one part by weight of each solution of the present compounds having a predetermined concentration to nine parts by weight of Mueller-Hinton's culture medium.
(§5) A loopful amount of the bacterial specimen prepared above was smeared to make a streak of about 2 cm on each agar plate and cultured at 37° C. for 18 to 24 hours. The minimum concentration for completely inhibiting proliferation of the bacteria (referred as MIC) was determined.

The next experiment deals with Pseudomonas aeruginosa. Nature of the experiment: Effect on intestinal bacterial colonies, Ps. aeruginosa count in feces. The experiment is classed as in vivo. The conditions noted are these: female ICR mice, oral 500 mg/kg/day for two days, first day after administration; before administration <3.0. The procedure: (§6) Effect of the present compounds on the intestinal bacterial colonies was examined.
(§7) Each of the present compounds was orally administered to mice (one group consisting of five female ICR mice of 6-week-old) for two consecutive days at a dose of 500 mg/kg/day.
(§8) Before and on the first day after the administration, feces of each mouse was collected and diluted with an anerobic diluent (phosphoric buffer solution) of 100 times volume and ground. 0.1 ml of the diluted and ground feces was smeared on each culture medium shown in Table 1 and cultured aerobically or anaerobically (according to the anaerobic glove box method) under each condition shown in Table 1.
NAC agar aerobic, 37° C., one day

The test system of another experiment is Escherichia coli. Nature of the experiment: Effect on intestinal bacterial colonies, E. coli count in feces. The following applies: female ICR mice, oral 500 mg/kg/day for two days, first day after administration; before administration 6.4. It is filed as in vivo. The procedure:
as §6, §7, §8
DHL agar aerobic, 37° C., one day

In the next experiment the test system is Bacteroides. Description: Effect on intestinal bacterial colonies, Bacteroides count in feces. The experiment is classed as in vivo. The following applies: female ICR mice, oral 500 mg/kg/day for two days, first day after administration; before administration 8.3. The procedure:
as §6, §7, §8
Bacteroides NBGT agar anaerobic, 37° C., five

The next experiment relates to Lactobacillus bifidus. Description: Effect on intestinal bacterial colonies, L. bifidus count in feces. The following applies: female ICR mice, oral 500 mg/kg/day for two days, first day after administration; before administration 8.4. The experiment is classed as in vivo. The procedure:
as §6, §7, §8
BS agar anaerobic, 37° C., five

The next experiment deals with Streptococcus spp. Description: Effect on intestinal bacterial colonies, Streptococcus count in feces. The following applies: female ICR mice, oral 500 mg/kg/day for two days, first day after administration; before administration 6.8. It is filed as in vivo. The procedure: as §6, §7, §8
TATAC agar aerobic, 37° C., one day

Experiment [2] has as its system Staphylococcus aureus IAM 1011. Nature of the experiment: Activation by rat liver homogenate (S-9 mix), penicillin cup proliferation-inhibiting circle. It is filed as cell-based. The following applies: compound solution 100 μg/ml, ratio of circle diameter to conventional penicillin antibiotic; for Proliferation-inhibiting index (%), after adding S-9 mix: incubated with S-9 mix 37° C., 20 min; for Proliferation-inhibiting index (%), before adding S-9 mix: phosphoric buffer control without S-9. The procedure: As an enzyme for activating metabolism, a rat liver homogenate (S-9, manufactured by Oriental Yeast Company, Japan) was used in the following composition per one ml (hereinafter referred to as S-9 mix).
0.1 ml of each solution of the present compounds at a concentration of 100 μg/ml was mixed with 0.9 ml of S-9 mix or 0.9 ml of 0.1M phosphoric buffer solution (as a control) and the obtained mixture was incubated at 37° C. for 20 min with shaking.
Staphylococcus aureus IAM 1011 was inoculated into a Mueller-Hinton's culture medium and cultured at 37° C. for 18 hours. The culture medium was adjusted to a cell concentration of 1×10^8 per one ml and mixed with 50 times by volume of Mueller-Hinton's agar culture medium to obtain an agar plate.
A penicillin cup of 8 mm in diameter was placed on the agar plate prepared above, and into the cup 0.1 ml of the mixture was introduced and allowed to stand at 4° C. for 2 hours and then cultured at 37° C. for 18 hours to measure the diameter of a circle in which the proliferation of bacteria was inhibited (proliferation-inhibiting circle). In Table 4, the proliferation-inhibitingindex is shown with the ratio (%) of the diameter of the proliferation-inhibiting circle obtained by using each of the present compounds to that obtained by using the comparative compound (conventionalpenicillin antibiotic).

Experiment [3] concerns Lactobacillus acidophilus. Nature of the experiment: Effect on intestinal bacterial colonies, L. acidophilus count in feces. It is filed as in vivo. The following applies: female ICR mice, oral 500 mg/kg/day for two days, first day after administration; before administration 9.0. The procedure:
as §6, §7, §8
Lactobacillus acidophilus
LBS agar anaerobic, 37° C., five

The subject of experiment [4] is Escherichia coli IFO 12734. Nature of the experiment: Antibacterial activity (MIC), agar plate, E. coli. The conditions noted are these: E. coli IFO 12734, Mueller-Hinton agar, 37° C., 18 to 24 hours; unit assumed. The experiment is classed as cell-based. The procedure: as §1, §2
Escherichia coli IFO 12734 and
as §3, §4, §5

On to `CC1(C)S[C@@H]2[C@H](NC(=O)C(N=Cc3cc(Cl)ccc3O)c3ccccc3)C(=O)N2[C@H]1C(=O)O` (some centres unmarked) [Example 5, sodium 6-(5-chlorosalicylaldehydeiminophenylglycino)penicillanate], for which the MIC, Staph. aureus in experiment [1] came to 0.1 µg/mL. Besides, the “Logarithmic value of the number of bacterial cells per one gram of feces, Ps. aeruginosa” value in the experiment on Pseudomonas aeruginosa is listed as 3.3 logarithmic value; cells per o. Further, the “Logarithmic value of the number of bacterial cells per one gram of feces, E. coli” value in the experiment with Escherichia coli is on record as 6.5 logarithmic value; cells per o. For the same compound, the “Logarithmic value of the number of bacterial cells per one gram of feces, Bacteroides” value in the experiment with Bacteroides is recorded as 8.0 logarithmic value; cells per o. Also, the “Logarithmic value of the number of bacterial cells per one gram of feces, L. bifidus” value in the experiment with Lactobacillus bifidus is reported as 8.7 logarithmic value; cells per o. Moreover, the “Logarithmic value of the number of bacterial cells per one gram of feces, Strept. spp.” value in the experiment with Streptococcus spp. is 6.6 logarithmic value; cells per o. Moreover, in experiment [2], the “Proliferation-inhibiting index (%), after adding S-9 mix” value was “+++ (66-100)” and the “Proliferation-inhibiting index (%), before adding S-9 mix” value is “++ (33-66)”. In experiment [3], the “Logarithmic value of the number of bacterial cells per one gram of feces, L. acidophilus” value was 8.8 logarithmic value; cells per o. This compound also gave an MIC, E. coli in [4] of 6.25 µg/mL.

Turning to `COCOC(=O)[C@@H]1N2C(=O)[C@@H](NC(=O)COc3ccccc3)[C@H]2SC1(C)C` [Example 9], in [1], the MIC, Staph. aureus was determined as 12.5 µg/mL (≈ 31.7 µM). In addition, the “Logarithmic value of the number of bacterial cells per one gram of feces, Ps. aeruginosa” value in the experiment with Pseudomonas aeruginosa is given as 3.2 logarithmic value; cells per o. Further, the “Logarithmic value of the number of bacterial cells per one gram of feces, E. coli” value with Escherichia coli is recorded as 6.5 logarithmic value; cells per o. Besides, the “Logarithmic value of the number of bacterial cells per one gram of feces, Bacteroides” value in the experiment on Bacteroides is on record as 8.1 logarithmic value; cells per o. Moreover, in the experiment on Lactobacillus bifidus, the “Logarithmic value of the number of bacterial cells per one gram of feces, L. bifidus” value is reported as 8.5 logarithmic value; cells per o. Further, the “Logarithmic value of the number of bacterial cells per one gram of feces, Strept. spp.” value in the experiment on Streptococcus spp. is given as 7.0 logarithmic value; cells per o. Besides, in experiment [2], the “Proliferation-inhibiting index (%), after adding S-9 mix” value is listed as “++ (33-66)” and the “Proliferation-inhibiting index (%), before adding S-9 mix” value was “+ (1-33)”. The “Logarithmic value of the number of bacterial cells per one gram of feces, L. acidophilus” value in experiment [3] is 9.5 logarithmic value; cells per o. In experiment [4], the MIC, E. coli is at least 25 µg/mL.
